From BindingDB's records for PubMed 8100350 (University of Pennsylvania, 1993)
*1 amine or outer side, *2 acyl side, *3 side chain or, on linkers, in order; H or OH if unused. Where a SMILES comes first, the peptide text is derived from it. Bridges are numbered along the chain shown (N, C = ends). [ ]: non-standard residue; d: D form. The star is where a group is joined. ξ: configuration not given here. Phe(4-NO2) = N[C@@H](Cc1ccc([N+](=O)[O-])cc1)C(=O)O; NH(1-naphthylmethyl) = c1ccc2c(CN*)cccc2c1; Phe(4-Cl) = N[C@@H](Cc1ccc(Cl)cc1)C(=O)O; 1Nal = N[C@@H](Cc1cccc2ccccc12)C(=O)O; 2Nal = N[C@@H](Cc1ccc2ccccc2c1)C(=O)O; d1Nal = N[C@H](Cc1cccc2ccccc12)C(=O)O; d2Nal = N[C@H](Cc1ccc2ccccc2c1)C(=O)O; dThr(3ξ) = CC(O)[C@@H](N)C(=O)O; X1 = O=C(C(N[*:1])S[*:3])[*:2]; Thr(3ξ) = CC(O)[C@H](N)C(=O)O; NMeA = CN[C@@H](C)C(=O)O; ξF = NC(Cc1ccccc1)C(=O)O; Abu = CC[C@H](N)C(=O)O; X2 = CC(O)[C@H](CO)N*; Ahp = NCCCCCCC(=O)O; ξC = NC(CS)C(=O)O; Mpa = O=C(O)CCS

Columns and labels:
[1] = biological target: Somatostatin receptor type 2 (Mus musculus, UniProt P30875)
[2] = biological target: Somatostatin receptor type 1 (Homo sapiens, UniProt P30872)
[3] = biological target: Somatostatin receptor type 3 (Mus musculus, UniProt P30935)
Somatostatin receptor type 3, sequence (P30935 whole entry): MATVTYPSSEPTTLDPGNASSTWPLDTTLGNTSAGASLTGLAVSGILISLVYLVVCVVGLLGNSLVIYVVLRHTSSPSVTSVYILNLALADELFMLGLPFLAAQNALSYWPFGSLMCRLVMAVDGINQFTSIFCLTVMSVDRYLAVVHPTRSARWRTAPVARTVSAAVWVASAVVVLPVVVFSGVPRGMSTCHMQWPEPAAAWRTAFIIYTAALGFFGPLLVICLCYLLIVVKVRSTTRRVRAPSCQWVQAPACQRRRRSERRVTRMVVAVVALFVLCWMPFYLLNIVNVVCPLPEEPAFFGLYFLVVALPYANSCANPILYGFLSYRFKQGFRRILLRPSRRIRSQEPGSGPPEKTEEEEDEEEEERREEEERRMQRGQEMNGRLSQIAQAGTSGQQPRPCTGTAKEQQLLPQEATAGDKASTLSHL

Somatostatin receptor type 2, sequence (P30875 whole entry): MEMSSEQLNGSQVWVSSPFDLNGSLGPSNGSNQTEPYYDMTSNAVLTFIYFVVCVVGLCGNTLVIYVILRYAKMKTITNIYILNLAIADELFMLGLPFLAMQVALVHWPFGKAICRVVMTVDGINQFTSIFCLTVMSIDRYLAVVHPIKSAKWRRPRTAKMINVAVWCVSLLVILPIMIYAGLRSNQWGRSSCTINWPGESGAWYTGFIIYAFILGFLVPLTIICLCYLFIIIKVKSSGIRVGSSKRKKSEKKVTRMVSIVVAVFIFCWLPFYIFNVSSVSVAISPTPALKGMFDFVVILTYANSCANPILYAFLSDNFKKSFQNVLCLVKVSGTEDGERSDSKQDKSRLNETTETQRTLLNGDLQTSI
Somatostatin receptor type 1, sequence (P30872 whole entry): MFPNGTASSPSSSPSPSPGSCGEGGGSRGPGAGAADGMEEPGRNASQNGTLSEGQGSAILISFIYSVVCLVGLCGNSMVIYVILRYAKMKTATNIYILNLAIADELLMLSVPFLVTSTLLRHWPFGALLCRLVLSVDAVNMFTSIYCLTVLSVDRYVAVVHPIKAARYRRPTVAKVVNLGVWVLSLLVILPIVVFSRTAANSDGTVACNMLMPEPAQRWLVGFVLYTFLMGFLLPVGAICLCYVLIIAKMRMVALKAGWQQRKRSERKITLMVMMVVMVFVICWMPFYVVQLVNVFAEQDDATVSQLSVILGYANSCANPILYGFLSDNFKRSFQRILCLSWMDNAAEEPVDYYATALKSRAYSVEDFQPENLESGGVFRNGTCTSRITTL

Row | Ki [1] | Ki [2] | Ki [3] | SMILES
1 | 836 nM | 1000 nM | 72 nM | CC(O)[C@H](NC(=O)[C@H](CCCCN)NC(=O)[C@@H](Cc1c[nH]c2ccccc12)NC(=O)[C@H](Cc1ccccc1)NC(=O)[C@@H](C)NC(=O)[C@@H](N)Cc1ccccc1)C(=O)N[C@@H](C)C(=O)N[C@H](C(N)=O)[C@@H](C)O (stereo partly specified) [BIM 23051] (H-F[dA]F[dW]K[Thr(3ξ)]AT-NH2)
2 | 2.4 nM | 1000 nM | 4.8 nM | CC(C)[C@H](NC(=O)[C@H](CCCCN)NC(=O)[C@@H](Cc1c[nH]c2ccccc12)NC(=O)[C@H](Cc1ccc(O)cc1)NC(=O)[C@H](Cc1ccc(Cl)cc1)NC(=O)[C@H](N)Cc1ccccc1)C(=O)N[C@@H](Cc1ccccc1)C(=O)N[C@H](C(N)=O)[C@@H](C)O [BIM 23057] (H-[dF][Phe(4-Cl)]Y[dW]KVFT-NH2)
3 | 948 nM | 1000 nM | 34 nM | CC(C)[C@H](NC(=O)[C@H](CCCCN)NC(=O)[C@@H](Cc1c[nH]c2ccccc12)NC(=O)[C@H](Cc1ccc(O)cc1)NC(=O)[C@H](Cc1ccc(Cl)cc1)NC(=O)[C@@H](N)Cc1ccccc1)C(=O)N[C@@H](Cc1ccccc1)C(=O)N[C@H](C)C(N)=O [BIM 23064] (H-F[Phe(4-Cl)]Y[dW]KVF[dA]-NH2)
4 | 3.1 nM | 1000 nM | 1.1 nM | CC(C)[C@H](NC(=O)[C@H](CCCCN)NC(=O)[C@@H](Cc1c[nH]c2ccccc12)NC(=O)[C@H](Cc1ccc(O)cc1)NC(=O)[C@H](Cc1ccc([N+](=O)[O-])cc1)NC(=O)[C@H](N)Cc1ccccc1)C(=O)N[C@@H](Cc1ccccc1)C(=O)N[C@H](C(N)=O)[C@@H](C)O [BIM 23066] (H-[dF][Phe(4-NO2)]Y[dW]KVFT-NH2)
5 | 135 nM |  | 123 nM | CC[C@H](NC(=O)[C@@H](N)Cc1ccc(Cl)cc1)C(=O)N[C@@H](Cc1ccc(O)cc1)C(=O)N[C@H](Cc1c[nH]c2ccccc12)C(=O)N[C@@H](CCCCN)C(=O)N[C@H](C(=O)N[C@@H](C)C(=O)N[C@H](Cc1ccccc1)C(N)=O)C(C)C [BIM 23067] (H-[Phe(4-Cl)][Abu]Y[dW]KVA[dF]-NH2)
6 | 0.15 nM | 1000 nM | 0.8 nM | C[C@@H](O)[C@H](NC(=O)[C@H](Cc1ccccc1)NC(=O)[C@@H](NC(=O)[C@H](CCCCN)NC(=O)[C@@H](Cc1c[nH]c2ccccc12)NC(=O)[C@H](Cc1ccc(O)cc1)NC(=O)[C@H](Cc1ccc(Cl)cc1)NC(=O)[C@H](N)Cc1ccccc1)[C@@H](C)O)C(N)=O [BIM 23068] (H-[dF][Phe(4-Cl)]Y[dW]KTFT-NH2)
7 | 7.8 nM | 1000 nM | 111 nM | CC(O)[C@H](NC(=O)[C@H](CCCCN)NC(=O)[C@@H](Cc1c[nH]c2ccccc12)NC(=O)[C@H](Cc1ccc(O)cc1)NC(=O)[C@@H](C)NC(=O)[C@@H](N)Cc1ccccc1)C(=O)N[C@@H](C)C(=O)N[C@@H](Cc1cccc2ccccc12)C(N)=O (stereo partly specified) [BIM 23070] (H-F[dA]Y[dW]K[Thr(3ξ)]A[1Nal]-NH2)
8 | 46 nM | 1000 nM | 0.04 nM | CC(C)[C@H](NC(=O)[C@H](CCCCN)NC(=O)[C@@H](Cc1c[nH]c2ccccc12)NC(=O)[C@H](Cc1ccc(O)cc1)NC(=O)[C@H](Cc1ccccc1)NC(=O)[C@H](N)Cc1ccccc1)C(=O)N[C@@H](Cc1ccccc1)C(=O)N[C@H](C(N)=O)[C@@H](C)O [BIM-23058] (H-[dF]FY[dW]KVFT-NH2)

The remaining lines, values behind:

Row | SMILES | Ki [1] | Ki [2] | Ki [3]
9 | CC(C)[C@@H]1NC(=O)[C@H](CCCCN)NC(=O)[C@@H](Cc2c[nH]c3ccccc23)NC(=O)[C@H](Cc2ccc(O)cc2)NC(=O)[C@@H](C)N(C)C(=O)[C@H](Cc2ccccc2)NC1=O | > 10000 nM | 419 nM | 4.7 nM
10 | CC(O)[C@H](CO)NC(=O)[C@@H]1CSSCC(NC(=O)C(N)Cc2ccccc2)C(=O)N[C@H](Cc2ccccc2)C(=O)N[C@H](Cc2c[nH]c3ccccc23)C(=O)N[C@H](CCCCN)C(=O)N[C@H](C(C)O)C(=O)N1 (stereo partly specified) (H-[ξF][ξC][dF][dW][dK][dThr(3ξ)]C-X2; disulfide 2-7) | 2.4 nM |  | 3 nM
11 | C[C@@H](O)[C@@H]1NC(=O)[C@H](CCCCN)NC(=O)[C@@H](Cc2c[nH]c3ccccc23)NC(=O)[C@H](Cc2ccccc2)NC(=O)[C@@H]2CCCN2C(=O)[C@H](Cc2ccccc2)NC1=O (cyclo(PF[dW]KTF)) | 8.6 nM | 1000 nM | 108 nM
12 | CC(C)[C@@H]1NC(=O)[C@H](CCCCN)NC(=O)[C@@H](Cc2c[nH]c3ccccc23)NC(=O)[C@H](Cc2ccc(O)cc2)NC(=O)[C@@H](NC(=O)[C@H](N)Cc2ccc3ccccc3c2)CSSC[C@@H](C(=O)N[C@H](C(N)=O)[C@@H](C)O)NC1=O [3-(2-Naphtyl)-D-Ala-L-Cys(1)-L-Tyr-D-Trp-L-Lys-L-Val-L-Cys(1)-L-Thr-NH2] | 1.6 nM | 789 nM | 5.6 nM
13 | C[C@@H](O)[C@@H]1NC(=O)[C@H](CCCCN)NC(=O)[C@@H](Cc2c[nH]c3ccccc23)NC(=O)[C@H](Cc2ccccc2)NC(=O)[C@@H]2CSSCC(NC1=O)C(=O)NCCCCCCC(=O)N2 [(1R,4S,7S,10R,13S,16R)-4-[(R)-1-Hydroxyethyl]-7-(4-aminobutyl)-10-(1H-indole-3-ylmethyl)-13-benzyl-28,29-dithia-2,5,8,11,14,17,25-heptaazabicyclo[14.10.4]triacontane-3,6,9,12,15,18,26-heptone] (cyclo([Ahp]CF[dW]KT[ξC]); disulfide 2-7) | 83 nM | 1000 nM | 0.08 nM
14 | CC1NC(=O)C(CCCCN)NC(=O)C(Cc2c[nH]c3ccccc23)NC(=O)C(Cc2ccc(O)cc2)NC(=O)C(NC(=O)C(N)Cc2ccccc2)CSSCC(C(=O)NCc2cccc3ccccc23)NC1=O (stereo unspecified) [BIM 23034] (H-FCYWKAC-{NH(1-naphthylmethyl)}; disulfide 2-7; configuration not given here) | 0.002 nM | 1000 nM | 65 nM
15 | CC(C)[C@@H]1NC(=O)[C@H](CCCCN)NC(=O)[C@@H](Cc2c[nH]c3ccccc23)NC(=O)[C@H](Cc2ccc(O)cc2)NC(=O)[C@@H](NC(=O)[C@H](N)Cc2ccc3ccccc3c2)CSSC[C@@H](C(=O)N[C@@H](Cc2ccc3ccccc3c2)C(N)=O)NC1=O [BIM 23042] (H-[d2Nal]CY[dW]KVC[2Nal]-NH2; disulfide 2-7) | 4.2 nM | 1000 nM | 207 nM
16 | CC(C)[C@H](NC(=O)[C@H](CCCCN)NC(=O)[C@@H](Cc1c[nH]c2ccccc12)NC(=O)[C@H](Cc1ccc(O)cc1)NC(=O)[C@H](Cc1ccccc1)NC(=O)[C@H](N)Cc1ccccc1)C(=O)N[C@@H](Cc1ccccc1)C(=O)N[C@H](Cc1cccc2ccccc12)C(N)=O [BIM 23056] (H-[dF]FY[dW]KVF[d1Nal]-NH2) | > 10000 nM | 1000 nM | 0.02 nM
17 | CC(O)C1NC(=O)C(CCCCN)NC(=O)C(Cc2c[nH]c3ccccc23)NC(=O)C(Cc2ccc(O)cc2)NC(=O)C(NC(=O)C(N)Cc2ccccc2)CSSCC(C(=O)NCc2cccc3ccccc23)NC1=O (stereo unspecified) [BIM 23060] (H-FCYWKTC-{NH(1-naphthylmethyl)}; disulfide 2-7; configuration not given here) | 0.01 nM | 1000 nM | 17.4 nM
18 | CC(C)[C@H](NC(=O)[C@H](CCCCN)NC(=O)[C@@H](Cc1c[nH]c2ccccc12)NC(=O)[C@H](Cc1ccc(O)cc1)NC(=O)[C@H](Cc1ccc(Cl)cc1)NC(=O)[C@@H](N)Cc1ccccc1)C(=O)N[C@@H](Cc1ccccc1)C(=O)N[C@@H](Cc1ccc2ccccc2c1)C(N)=O [BIM 23063] (H-F[Phe(4-Cl)]Y[dW]KVF[2Nal]-NH2) | 248 nM | 1000 nM | 81 nM
19 | CC[C@@H]1NC(=O)[C@H](CCCCN)NC(=O)[C@@H](Cc2c[nH]c3ccccc23)NC(=O)[C@H](Cc2ccc(O)cc2)NC(=O)[C@H](C)N(C)C(=O)[C@H](Cc2ccccc2)NC1=O [BIM-23027] (cyclo([Abu]F[NMeA]Y[dW]K)) | 0.001 nM | 1000 nM | 2.4 nM
20 | CC(C)[C@@H]1NC(=O)[C@H](CCCCN)NC(=O)[C@@H](Cc2c[nH]c3ccccc23)NC(=O)[C@H](Cc2ccc(O)cc2)NC(=O)CCSSC(C(=O)N[C@@H](Cc2ccccc2)C(N)=O)NC1=O (stereo partly specified) [CAS_117580-24-2] ([Mpa]Y[dW]KV[X1]F-NH2; disulfide 1-6) | 6.1 nM | 1000 nM | 133 nM
21 | C[C@@H](O)[C@H](NC(=O)[C@H](Cc1ccccc1)NC(=O)[C@@H](NC(=O)[C@H](CCCCN)NC(=O)[C@@H](Cc1c[nH]c2ccccc12)NC(=O)[C@H](Cc1ccccc1)NC(=O)[C@H](Cc1ccccc1)NC(=O)[C@H](N)Cc1ccccc1)[C@@H](C)O)C(N)=O [CAS_133073-82-2] (H-[dF]FF[dW]KTFT-NH2) | 32 nM | 23 nM | 0.42 nM
22 | CC(C)[C@@H]1NC(=O)[C@H](CCCCN)NC(=O)[C@@H](Cc2c[nH]c3ccccc23)NC(=O)[C@H](Cc2ccc(O)cc2)NC(=O)[C@H](C)N(C)C(=O)[C@H](Cc2ccccc2)NC1=O [CAS_3086456] | 0.18 nM |  | 12 nM
23 | C[C@@H](O)[C@@H]1NC(=O)[C@H](Cc2ccccc2)NC(=O)[C@H]([C@@H](C)O)NC(=O)[C@H](CCCCN)NC(=O)[C@@H](Cc2c[nH]c3ccccc23)NC(=O)[C@H](Cc2ccccc2)NC(=O)[C@H](Cc2ccc(Cl)cc2)NC(=O)[C@H](CC(N)=O)NC(=O)[C@H](CCCCN)NC(=O)[C@@H](N)CSSC[C@@H](C(=O)O)NC(=O)[C@H](CO)NC1=O [EC5-21] (H-CKN[Phe(4-Cl)]F[dW]KTFTSC-OH; disulfide 1-12) | 0.005 nM |  | 2.1 nM
24 | C[C@H](N)C(=O)NCC(=O)N[C@H]1CSSC[C@@H](C(=O)O)NC(=O)[C@H](CO)NC(=O)[C@H]([C@@H](C)O)NC(=O)[C@H](Cc2ccccc2)NC(=O)[C@H]([C@@H](C)O)NC(=O)[C@H](CCCCN)NC(=O)[C@@H](Cc2c[nH]c3ccccc23)NC(=O)[C@H](Cc2ccccc2)NC(=O)[C@H](Cc2ccccc2)NC(=O)[C@H](CC(N)=O)NC(=O)[C@H](CCCCN)NC1=O [SRIF-D-Trp8] | 0.005 nM |  | 
